Data as given in the NIST ThermoML archive (doi:10.1016/j.jct.2005.08.002).
Numbers after ± are expanded uncertainties.

Key:
[1] = 101 kPa, Liquid; for viscosity: Capillary tube (Ostwald / Ubbelohde) method; for speed of sound: Sing-around technique in a fixed-path interferometer; for mass density: Vibrating tube method
[2] = xn = mol fraction of the nth substance listed; details: 101 kPa, Liquid, x2 = 0; for viscosity: Capillary tube (Ostwald / Ubbelohde) method; for speed of sound: Sing-around technique in a fixed-path interferometer; for mass density: Vibrating tube method

| Structure (SMILES) | viscosity ([1]; 293.15 K) [mPa·s] | speed of sound ([1]; 293.15 K) [m/s] | mass density ([1]; 293.15 K) [kg/m3] | viscosity ([1]; 298.15 K) [mPa·s] | speed of sound ([1]; 298.15 K) [m/s] | mass density ([1]; 298.15 K) [kg/m3] | viscosity ([1]; 303.15 K) [mPa·s] | speed of sound ([1]; 303.15 K) [m/s] | mass density ([1]; 303.15 K) [kg/m3] | viscosity ([2]; 293.15 K) [mPa·s] | speed of sound ([2]; 293.15 K) [m/s] | mass density ([2]; 293.15 K) [kg/m3] | viscosity ([2]; 298.15 K) [mPa·s] | speed of sound ([2]; 298.15 K) [m/s] | mass density ([2]; 298.15 K) [kg/m3] | viscosity ([2]; 303.15 K) [mPa·s] | speed of sound ([2]; 303.15 K) [m/s] | mass density ([2]; 303.15 K) [kg/m3] |
| --- | --- | --- | --- | --- | --- | --- | --- | --- | --- | --- | --- | --- | --- | --- | --- | --- | --- | --- |
| CC(C)=O [acetone] | 0.32 ± 0.007 | 1185 ± 2 | 791.11 ± 0.15 | 0.306 ± 0.007 | 1162 ± 2 | 785.41 ± 0.15 | 0.292 ± 0.006 | 1140 ± 2 | 779.66 ± 0.15 | – | – | – | – | – | – | – | – | – |
| CC(C)=O [acetone] + CC1CCCC1 | – | – | – | – | – | – | – | – | – | 0.32 ± 0.007 | 1185 ± 2 | 791.11 ± 0.15 | 0.306 ± 0.007 | 1162 ± 2 | 785.41 ± 0.15 | 0.292 ± 0.006 | 1140 ± 2 | 779.66 ± 0.15 |
| CCC(C)=O [butanone] | 0.398 ± 0.009 | 1213 ± 2 | 804.95 ± 0.23 | 0.378 ± 0.008 | 1192 ± 2 | 799.74 ± 0.23 | 0.36 ± 0.008 | 1171 ± 2 | 794.48 ± 0.23 | – | – | – | – | – | – | – | – | – |
| CCC(C)=O [butanone] + CC1CCCC1 | – | – | – | – | – | – | – | – | – | 0.398 ± 0.009 | 1213 ± 2 | 804.95 ± 0.23 | 0.378 ± 0.008 | 1192 ± 2 | 799.74 ± 0.23 | 0.36 ± 0.008 | 1171 ± 2 | 794.48 ± 0.23 |
| CC1CCCC1 [methylcyclopentane] | 0.504 ± 0.016 | 1197 ± 5 | 746.64 ± 2 | 0.476 ± 0.016 | 1174 ± 5 | 741.94 ± 2 | 0.45 ± 0.015 | 1150 ± 5 | 737.21 ± 1.9 | – | – | – | – | – | – | – | – | – |
| CCCC(C)=O [pentan-2-one] | 0.496 ± 0.011 | 1233 ± 2 | 806.26 ± 0.23 | 0.469 ± 0.01 | 1213 ± 2 | 801.42 ± 0.23 | 0.444 ± 0.009 | 1192 ± 2 | 796.58 ± 0.23 | – | – | – | – | – | – | – | – | – |
| CCCC(C)=O [pentan-2-one] + CC1CCCC1 | – | – | – | – | – | – | – | – | – | 0.496 ± 0.011 | 1233 ± 2 | 806.26 ± 0.23 | 0.469 ± 0.01 | 1213 ± 2 | 801.42 ± 0.23 | 0.444 ± 0.009 | 1192 ± 2 | 796.58 ± 0.23 |
